This is an account of results in article PMC7956626, “Phenylalanine-Derived β-Lactam TRPM8 Modulators. Configuration Effect on the Antagonist Activity” (International Journal of Molecular Sciences, 2021).

Entries after “also recorded” stand apart in the source; their conditions may differ.

The target in data set [1] is T1, rat TRPM8 (Rattus norvegicus, UniProt Q8R455).
T1 construct: expressed in transfected cells; host or cells: HEK293 (human embryonic kidney), stably transfected
In words: Ca2+ intracellular influx assay (calcium microfluorimetry), menthol-induced. Format: cell-based. The conditions noted are these: 100 μM menthol; for IC50 / % Blockade 5 μM / % Blockade 50 μM: HEK-rTRPM8; for % Blockade 5 μM: compound 5 μM; for % Blockade 50 μM: compound 50 μM; for Menthol-induced fluorescent signal: compound 10 μM, representative graph Figure A1. As for the experimental part: The four obtained diastereomeric compounds were evaluated for their ability to inhibit menthol-induced Ca^2+ intracellular influx into the cytosol on HEK293 cells heterologously expressing rat TRPM8. The well-known TRPM8 antagonist N-(3-aminopropyl)-2-[(3-methylphenyl)methoxy]-N-(2-thienylmethyl)-benzamide (AMTB) was used as control. Some representative graphs for compound 14 and 16 at 10 μM on HEK-rTRPM8 cells are included in Figure A1.
Compounds were evaluated for their activity against rTRPM8 using microfluorometry based calcium flux assays with Fluo-4 NW Ca^2+ dye and fluorescence were measured at excitation wavelength of 485 nm and emission wavelength of 520 nm using POLASTAR plate reader (BMG Labtech). Briefly human embryonic kidney cell line (HEK) stably transfected with rTRPM8 were seeded in 96-well plates at a cell density of 30,000 cells and 2 days before the medium was replaced with 100 μL of the dye loading solution Fluo-4 NW supplemented with probenecid 2.5 mM. After 1 h incubation at 37 °C, plates were transferred to the plate reader and the baseline fluorescence was recorded for 3 cycles before the addition of vehicle, compound at different concentrations and the antagonist, 10 μM AMTB for TRPM8. Fluorescence intensity was recorded during 7 more cycles and the agonist was added, 100 μM menthol. Fluorescence intensity was recorded during 10 more cycles.
Data analysis: the fluorescence values obtained for each compound concentration were normalized to that prompted by the control agonist (100 μM menthol). Decrease in menthol signal was expressed as percentage of inhibition (%). All data are expressed as the mean ± standard deviation (SD). Each condition was assessed in triplicate (n = 3) in 3 independent experiments (N = 3). The Z-factor was calculated in each assay using the following equation: […]. In all the experiments, the Z-factor was ≥ 0.5. To calculate IC50, normalized responses (%) versus log (μM) were adjusted to a non-linear fit with variable slope, a four-parameter dose–response curve following curve Y = 100/(1 + 10^((Log IC50-X) × HillSlope)) where […].

A further data set deals with T2, hTRPV1 (Homo sapiens, UniProt Q8NER1).
T2 construct: expressed in transfected cells
In words: Ca2+ influx assay, TRPV1 selectivity. Format: cell-based. The conditions noted are these: compound 50 μM; read-out: % TRPV1 Blockade at 50 μM. The text has this:
(§1) Because some molecular cross-recognition may occur within thermoTRP members, we evaluated the effect of compounds 14 and 16 on recombinantly expressed hTRPV1 and hTRPA1 channels. Data shown in Table 2 indicate that these β–lactam derivatives marginally cross-reacted with these channels, thus substantiating that they are potent and selective inhibitors of TRPM8.

In a further data set the target is T3, hTRPA1 (Homo sapiens, UniProt O75762).
T3 construct: expressed in transfected cells
As to the kind of experiment: Ca2+ influx assay, TRPA1 selectivity. Format: cell-based. The conditions noted are these: compound 50 μM; read-out: % TRPA1 Blockade at 50 μM.
Text: as §1

The target of data set [2] is T1, rat TRPM8. Further details: method as in PMID 32843690. The note with it: ref [41]; cited from earlier work.
For data set [3], the system named is oxaliplatin-induced allodynia. Further details: method as in PMID 32843690. The note with it: mice; from 15 to up to 60 min; ref [41]; cited from earlier work.
The next data set relates to four tumor cell lines. Details: method as in PMID 32843690. The note with it: non-selective, ref [41]; cited from earlier work.
Data set [4] has as its target T1, rat TRPM8. In words: Whole-cell patch-clamp in HEK293 cells expressing rat TRPM8. Format: cell-based. The note with it: 100 μM menthol; for % Blockade at 10 μM: compound 10 μM, whole cell; for IC50: holding potential −60 mV. The method, then: In the electrophysiology assay, both compounds at 10 μM concentration were able to block TRPM8-mediated responses induced by menthol (Figure 2 and Figure A2, Table 3). […] After 10 μM of 14 was applied (Figure 2A, red), an important decrease on the menthol-induced TRPM8 activity at depolarizing voltages was observed. A similar behavior was detected after application of diastereomeric β–lactam 16 (Figure 2B). The dose–response curves for both compounds were obtained at a holding potential of −60 mV (Figure 2). The measured IC50 values were 0.9 ± 1.0 μM for 14 (Figure 2C) and 0.05 ± 1.3 μM for 16 (Figure 2D).
Whole-cell patch-clamp recordings from HEK-rTRPM8 cells were carried out 2 days after seeding on 12-mm Ø glass coverslips treated with poly-L-lysine solution (Sigma Aldrich, Spain); the intracellular pipette solution contained (in mM) 150 NaCl, 5 EGTA, 3 MgCl2 and 10 HEPES, adjusted to pH 7.2 with NaOH, and the extracellular solution contained (in mM) 150 NaCl, 6 CsCl, 1.5 CaCl2, 1 MgCl2, 10 D-glucose and 10 HEPES, adjusted to pH 7.4 with NaOH. The TRPM8 activity was measured by the application of two pulses of 100 μM menthol in a time interval of 2 min and a 30-s perfusion of the different compound concentrations before the second menthol pulse.
(§2) Data were sampled at 10 kHz (EPC10 amplifier with PatchMaster 2.53 software, HEKA Electronics, Lambrecht, Germany) and low-pass filtered at 3 kHz for analysis (PatchMaster 2.53 and GraphPad Prism 5, Graphpad Software, USA). The series resistance was <10 MΩ and to minimize voltage errors was compensated to 60–80%. All measurements were performed at 24–25 °C. Cell capacitance was measured and used to estimate the current density (J, pA/pF).
Data analysis: Results are expressed as the percentage of remaining activation of the TRPM8 channel. This is calculated by normalizing the ratio (p2/p1) of testing conditions to the ratio (p2/p1) of the control condition. Analysis of the data was performed by GraphPad 6.0, the Ordinary One-Way ANOVA analysis followed by the post hoc Bonferroni test stablished multiple comparisons and the ROUT method (Q = 10%) identified data outliers. A non-linear regression curve and IC50 were obtained by the representation of log (inhibitor) vs. response. All data are expressed as the mean ± standard error of the mean (SEM) (n = 5–8).
Background: The patch-clamp technique gives a direct electrical read-out from membranes.

For another data set, the system named is rat DRG sensory neurons. As to the kind of experiment: Current-clamp resting membrane potential of DRG sensory neurons. Format: cell-based. The conditions noted are these: compound 10 μM, t-test ns. The method, then:
Next, we investigated the effect of the membrane of rat DRG sensory neurons. […] Sensory neurons were functional as evidenced by action potentials fired exposed to 100 μM menthol (Figure 3A, top trace).
Current-Clamp recordings from rat DRGs were carried out 24–48 h after seeding on 12-mm Ø glass coverslips treated with poly-L-lysine solution and Laminin (Sigma Aldrich). The intracellular pipette solution contained (in mM): 4 NaCl, 126 K gluconate, 0.02 CaCl2, 1 MgSO4, 5 HEPES, 15 glucose, 3 ATP, 0.1 GTP and 5 EGTA, pH 7.2 with KOH. The extracellular solution contained (in mM): 140 NaCl, 4 KCl, 2 CaCl2, 2 MgCl2, 10 HEPES, 5 glucose and 20 mannitol, pH 7.4 with NaOH. The membrane potential was measured in the absence and the presence of compounds 14 and 16 at 10 μM in a time interval of 1 min.
as §2

The subject of the next data set is rat DRG neurons. In words: Microelectrode array, KCl-evoked action potentials in DRG neurons. Format: cell-based. The note with it: compound 10 μM; 40 mM KCl. An excerpt:
To further interrogate β–lactam derivatives’ action on the excitability of DRG neurons we next used microelectrode arrays (MEA). This technology records the electrogenic activity of neural populations that are located near to an electrode, but it cannot differentiate the number of neurons or other cells contributing to it. We used MEA chips with 60 electrodes and monitored the electrical activity at each electrode to measure if the potent inhibitory effect of β–lactam derivatives act on voltage-gated Na^+ and K^+ channels present in neurons and responsible for action potential propagation. Neurons isolated from neonatal rat dorsal root ganglions (DRG) were cultured on MEA chambers. The experimental paradigm consisted in applying a first 15-s pulse (P1) of 40 mM KCl, to evoke action potentials. […]
Data analysis: Data were analyzed using an MC_RACK spike sorter with a sample rate of 25 kHz and a Butterworth high-pass 2nd order filter applied with 200 Hz cutoff. […] Spiking activity was measured in a temporal interval of 30 s, starting right after instillation of the activating stimuli. […] The recorded signals were then processed to extract mean spike frequency for each pulse (P1–P2). Then, the ratio P2/P1 of mean spike frequency was calculated and normalized to vehicle for comparing the different conditions used.

For a further data set, the system named is TRPM8. Details: method as in PMID 25893043, PMID 30148953. The note with it: healthy volunteers and migraneous patients, respectively; ref [35],[36]; cited from earlier work.

The IC50 is the concentration that inhibits the measured activity by half.

T1 sequence (Q8R455 whole entry): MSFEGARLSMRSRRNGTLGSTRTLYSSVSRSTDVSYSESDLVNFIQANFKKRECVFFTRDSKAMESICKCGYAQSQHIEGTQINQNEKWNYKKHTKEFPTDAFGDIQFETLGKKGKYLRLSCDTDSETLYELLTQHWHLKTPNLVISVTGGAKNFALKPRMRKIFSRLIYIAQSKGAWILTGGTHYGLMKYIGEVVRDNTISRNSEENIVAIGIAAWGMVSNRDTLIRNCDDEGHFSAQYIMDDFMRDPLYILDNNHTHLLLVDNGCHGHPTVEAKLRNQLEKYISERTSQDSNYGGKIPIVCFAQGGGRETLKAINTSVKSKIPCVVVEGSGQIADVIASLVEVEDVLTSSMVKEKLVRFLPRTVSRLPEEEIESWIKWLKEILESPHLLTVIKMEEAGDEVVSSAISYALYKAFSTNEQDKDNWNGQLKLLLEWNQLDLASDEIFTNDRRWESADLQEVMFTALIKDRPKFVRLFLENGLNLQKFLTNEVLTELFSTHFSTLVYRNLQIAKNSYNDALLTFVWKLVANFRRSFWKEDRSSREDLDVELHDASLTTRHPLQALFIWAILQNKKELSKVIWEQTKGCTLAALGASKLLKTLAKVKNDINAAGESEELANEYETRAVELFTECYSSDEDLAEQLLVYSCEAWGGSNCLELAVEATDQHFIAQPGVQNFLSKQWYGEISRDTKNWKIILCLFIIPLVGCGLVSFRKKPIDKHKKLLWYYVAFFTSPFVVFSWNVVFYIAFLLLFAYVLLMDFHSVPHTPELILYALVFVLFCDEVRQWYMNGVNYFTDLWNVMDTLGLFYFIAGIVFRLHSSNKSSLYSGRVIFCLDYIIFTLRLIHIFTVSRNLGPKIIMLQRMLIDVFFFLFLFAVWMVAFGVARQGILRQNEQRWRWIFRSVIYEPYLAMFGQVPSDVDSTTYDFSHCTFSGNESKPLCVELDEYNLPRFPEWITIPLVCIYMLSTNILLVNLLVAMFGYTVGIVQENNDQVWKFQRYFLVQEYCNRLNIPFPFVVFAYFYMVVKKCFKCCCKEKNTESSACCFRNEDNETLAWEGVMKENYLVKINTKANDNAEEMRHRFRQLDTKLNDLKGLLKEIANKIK
T2 sequence (Q8NER1 whole entry): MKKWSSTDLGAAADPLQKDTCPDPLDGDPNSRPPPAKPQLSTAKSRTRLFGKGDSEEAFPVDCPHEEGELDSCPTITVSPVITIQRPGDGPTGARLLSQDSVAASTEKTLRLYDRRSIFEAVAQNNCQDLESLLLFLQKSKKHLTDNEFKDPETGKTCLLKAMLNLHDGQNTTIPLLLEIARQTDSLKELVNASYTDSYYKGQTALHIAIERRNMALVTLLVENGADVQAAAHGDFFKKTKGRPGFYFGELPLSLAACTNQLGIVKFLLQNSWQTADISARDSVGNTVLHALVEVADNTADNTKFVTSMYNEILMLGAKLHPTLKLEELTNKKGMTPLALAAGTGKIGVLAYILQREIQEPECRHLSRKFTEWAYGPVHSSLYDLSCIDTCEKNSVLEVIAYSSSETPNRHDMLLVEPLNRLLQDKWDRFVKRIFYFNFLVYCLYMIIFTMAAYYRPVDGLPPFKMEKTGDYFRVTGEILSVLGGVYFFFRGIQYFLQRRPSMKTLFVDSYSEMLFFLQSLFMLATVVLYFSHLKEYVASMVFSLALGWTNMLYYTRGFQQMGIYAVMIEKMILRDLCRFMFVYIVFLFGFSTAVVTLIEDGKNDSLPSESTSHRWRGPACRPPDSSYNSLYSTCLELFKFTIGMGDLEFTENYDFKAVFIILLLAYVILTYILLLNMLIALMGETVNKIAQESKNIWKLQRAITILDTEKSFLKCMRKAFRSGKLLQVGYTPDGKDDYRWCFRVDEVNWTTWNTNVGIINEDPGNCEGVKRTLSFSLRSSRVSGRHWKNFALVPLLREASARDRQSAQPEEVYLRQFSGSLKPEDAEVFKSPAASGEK
T3 sequence (O75762 whole entry): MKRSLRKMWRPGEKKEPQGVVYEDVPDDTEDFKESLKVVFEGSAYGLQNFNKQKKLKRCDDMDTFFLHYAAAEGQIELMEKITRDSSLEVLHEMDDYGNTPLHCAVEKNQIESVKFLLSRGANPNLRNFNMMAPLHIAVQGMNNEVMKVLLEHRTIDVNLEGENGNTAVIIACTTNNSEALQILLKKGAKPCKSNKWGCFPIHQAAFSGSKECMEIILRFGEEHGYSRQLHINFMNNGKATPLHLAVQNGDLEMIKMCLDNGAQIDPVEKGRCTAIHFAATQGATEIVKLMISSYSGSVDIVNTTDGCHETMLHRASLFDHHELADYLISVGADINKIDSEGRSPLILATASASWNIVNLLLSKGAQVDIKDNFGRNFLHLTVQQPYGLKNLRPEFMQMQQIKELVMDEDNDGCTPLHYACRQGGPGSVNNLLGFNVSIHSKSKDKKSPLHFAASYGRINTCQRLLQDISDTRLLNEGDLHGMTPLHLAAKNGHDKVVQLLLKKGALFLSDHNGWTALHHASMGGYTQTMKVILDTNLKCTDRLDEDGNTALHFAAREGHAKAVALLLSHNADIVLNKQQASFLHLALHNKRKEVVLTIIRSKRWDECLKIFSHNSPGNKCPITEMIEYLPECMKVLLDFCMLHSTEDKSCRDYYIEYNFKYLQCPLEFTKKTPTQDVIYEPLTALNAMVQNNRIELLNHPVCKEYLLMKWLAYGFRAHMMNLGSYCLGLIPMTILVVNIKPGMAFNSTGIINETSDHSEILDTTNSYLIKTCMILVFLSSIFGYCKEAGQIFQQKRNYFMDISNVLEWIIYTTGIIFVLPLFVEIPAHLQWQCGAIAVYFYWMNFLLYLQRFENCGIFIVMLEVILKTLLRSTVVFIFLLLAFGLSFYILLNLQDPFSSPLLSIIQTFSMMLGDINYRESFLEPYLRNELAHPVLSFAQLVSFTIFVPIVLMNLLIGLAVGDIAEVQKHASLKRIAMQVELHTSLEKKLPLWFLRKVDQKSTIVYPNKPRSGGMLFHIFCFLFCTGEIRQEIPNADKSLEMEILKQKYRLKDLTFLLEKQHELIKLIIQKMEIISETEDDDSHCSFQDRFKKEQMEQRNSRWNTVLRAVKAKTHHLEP

On to `C[C@H]1C(=O)N(C[C@H](Cc2ccccc2)N(Cc2ccccc2)Cc2ccccc2)[C@@]1(Cc1ccccc1)C(=O)OCc1ccccc1` [Compound 15, 4R-Benzyl-1-[(2′S-dibenzylamino-3′-phenyl)prop-1′-yl]-4-benzyloxicarbonyl-3R-methyl-2-oxoazetidine], for which, on rat TRPM8 [1], the half-inhibitory concentration (IC50) came to 700 ± 1100 nM, the “% Blockade 5 μM” value amounted to 71.1 ± 4.3% and the “% Blockade 50 μM” value amounted to 90.3 ± 2.8%. On hTRPV1, the inhibition at 50 µM came out at 5.3 ± 3.4%. For the same compound, the inhibition at 50 µM at hTRPA1 is 2.6 ± 1.9%.
As for `C[C@@H]1C(=O)N(C[C@H](Cc2ccccc2)NC(=O)OCc2ccccc2)[C@]1(Cc1ccccc1)C(=O)OCc1ccccc1` [Compound 1], at rat TRPM8 [2], the “Block of channel activation by menthol (Ca2+ entry assay)” value is recorded as “micromolar values”. Also, the Oxaliplatin-induced allodynia result in data set [3] is recorded as “significantly reduces the oxaliplatin-induced allodynia”. For the same compound, the Antitumor activity result with four tumor cell lines is on record as “micromolar potency in four tumor cell lines”.
On to `C[C@@H]1C(=O)N(C[C@@H](Cc2ccccc2)N(Cc2ccccc2)Cc2ccccc2)[C@]1(Cc1ccccc1)C(=O)OCc1ccccc1` [Compound 14, 4S-Benzyl-1-[(2′R-dibenzylamino-3′-phenyl)prop-1′-yl]-4-benzyloxicarbonyl-3S-methyl-2-oxoazetidine], for which, on rat TRPM8 [1], the “% Blockade 5 μM” value is reported as 78.9 ± 1.7%, the Menthol-induced fluorescent signal entry was “completely blocked” and the “% Blockade 50 μM” value is listed as 87.7 ± 3.1%. For the same compound, at hTRPV1, the inhibition at 50 µM turned out to be 2.8 ± 4.1%. In addition, the inhibition at 50 µM on hTRPA1 turned out to be 2.4 ± 1.4%. At rat TRPM8 [4], the “% Blockade at 10 μM” value was 77.2 ± 2.7% and half-maximal inhibition (IC50) required 900 ± 1000 nM. Moreover, the “Effect on resting membrane potential” value in the data set with rat DRG sensory neurons is on record as “do not affect the membrane resting potential”. For the same compound, the “Effect on potassium-evoked action potentials (electrogenicity)” value in the data set on rat DRG neurons is “do not alter potassium-evoked action potentials; also recorded: did not affected the electrogenicity”.
With `C[C@H]1C(=O)N(C[C@@H](Cc2ccccc2)N(Cc2ccccc2)Cc2ccccc2)[C@@]1(Cc1ccccc1)C(=O)OCc1ccccc1` [Compound 16, 4R-Benzyl-1-[(2′R-dibenzylamino-3′-phenyl-)prop-1′-yl]-4-benzyloxicarbonyl-3R-methyl-2-oxoazetidine], at rat TRPM8 [1], the “% Blockade 5 μM” value worked out at 87.3 ± 8.1%, the Menthol-induced fluorescent signal result was “completely blocked” and the “% Blockade 50 μM” value is 98.5 ± 3.2%. Further, the inhibition at 50 µM on hTRPV1 stood at 4.2 ± 3.2%. The inhibition at 50 µM at hTRPA1 stood at 0.5 ± 4.1%. On rat TRPM8 [4], the “% Blockade at 10 μM” value came to 79.3 ± 2.7% and the concentration for half-maximal inhibition (IC50) was determined as 50 nM. In addition, in the data set with rat DRG sensory neurons, the “Effect on resting membrane potential” value is listed as “do not affect the membrane resting potential”. In addition, in the data set on rat DRG neurons, the “Effect on potassium-evoked action potentials (electrogenicity)” value is on record as “do not alter potassium-evoked action potentials; also recorded: did not affected the electrogenicity”.
For the compound `C[C@H](c1ccc(F)cc1)N(Cc1cccc(C(=O)O)c1)C(=O)c1cnc2ccccc2c1` [PF-05105679], in the data set with TRPM8, the “Adverse effects in phase I clinical trials” value is “several adverse effects, including feeling hot”.
As for `C[C@@H]1C(=O)N(C[C@H](Cc2ccccc2)N(Cc2ccccc2)Cc2ccccc2)[C@]1(Cc1ccccc1)C(=O)OCc1ccccc1` [Compound 13, 4S-Benzyl-1-[(2′S-dibenzylamino-3′-phenyl-)prop-1′-yl]-4-benzyloxicarbonyl-3S-methyl-2-oxoazetidine], on rat TRPM8 [1], the half-inhibitory concentration (IC50) is 3100 ± 1100 nM, the “% Blockade 5 μM” value came to 57.7 ± 7.2% and the “% Blockade 50 μM” value turned out to be 86.1 ± 5.0%. Moreover, the inhibition at 50 µM at hTRPV1 was found to be 7.9 ± 3.2%. For the same compound, on hTRPA1, the inhibition at 50 µM came to 3.7 ± 4.1%.
